Data: article PMC7347136 (PLoS ONE, 2020)

Legend:
Experiment in all cases: Carna kinase panel screen
Assay type in all cases: biochemical
Conditions in all cases: read-out: % Inhibition ± SD
MAP2K4 = biological target: T1, MAP2K4 (Homo sapiens, UniProt P45985)
T1 construct: purchased Carna Biosciences
Outline: (§1)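 Inhibition was measured across ten compound concentrations at Km-approximating ATP. A four-parameter logistic curve fitted to the percentage-inhibition data yields the IC50.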

p70S6K = biological target: T2, p70S6K (Homo sapiens, UniProt P23443)
T2 construct: purchased Carna Biosciences
Outline: as §1

HIPK2 = biological target: T3, HIPK2 (Homo sapiens, UniProt Q9H2X6)
T3 construct: purchased Carna Biosciences
Outline: as §1

HCK = biological target: T4, HCK (Homo sapiens, UniProt P08631)
T4 construct: purchased Carna Biosciences
Outline: as §1

CDK3 = biological target: T5, CDK3 (Homo sapiens, UniProt Q00526)
T5 construct: purchased Carna Biosciences
Outline: as §1

SRPK2 = biological target: T6, SRPK2 (Homo sapiens, UniProt P78362)
T6 construct: purchased Carna Biosciences
Outline: (§2)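 Ten-point dose-response, ATP ≈ Km. % inhibition vs concentration → 4-parameter logistic fit → IC50.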

LTK = biological target: T7, LTK (Homo sapiens, UniProt P29376)
T7 construct: purchased Carna Biosciences
Outline: as §1

MSK1 = biological target: T8, MSK1 (Homo sapiens, UniProt O75582)
T8 construct: purchased Carna Biosciences
Outline: as §1

NDR1 = biological target: T9, NDR1 (Homo sapiens, UniProt Q15208)
T9 construct: purchased Carna Biosciences
Outline: as §1

CLK1 = biological target: T10, CLK1 (Homo sapiens, UniProt P49759)
T10 construct: purchased Carna Biosciences
Outline: as §1

KIT[T670I] = biological target: T11, KIT[T670I] (Homo sapiens, UniProt P10721, T670I)
T11 construct: purchased Carna Biosciences
Outline: as §1

MRCKa = biological target: T12, MRCKa (Homo sapiens, UniProt Q5VT25)
T12 construct: purchased Carna Biosciences
Outline: as §1

DAPK1 = biological target: T13, DAPK1 (Homo sapiens, UniProt P53355)
T13 construct: purchased Carna Biosciences
Outline: as §2

BRAF = biological target: T14, BRAF (Homo sapiens, UniProt P15056)
T14 construct: purchased Carna Biosciences
Outline: as §1

MAP2K3 = biological target: T15, MAP2K3 (Homo sapiens, UniProt P46734)
T15 construct: purchased Carna Biosciences
Outline: as §2

ZAP70 = biological target: T16, ZAP70 (Homo sapiens, UniProt P43403)
T16 construct: purchased Carna Biosciences
Outline: as §1

MAP3K2 = biological target: T17, MAP3K2 (Homo sapiens, UniProt Q9Y2U5)
T17 construct: purchased Carna Biosciences
Outline: as §1

MST2 = biological target: T18, MST2 (Homo sapiens, UniProt Q13188)
T18 construct: purchased Carna Biosciences
Outline: as §1

AurB = biological target: T19, AurB (Homo sapiens, UniProt Q96GD4)
T19 construct: purchased Carna Biosciences
Outline: as §1

NEK7 = biological target: T20, NEK7 (Homo sapiens, UniProt Q8TDX7)
T20 construct: purchased Carna Biosciences
Outline: as §1

CDK6 = biological target: T21, CDK6 (Homo sapiens, UniProt Q00534)
T21 construct: purchased Carna Biosciences
Outline: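 10-pt curves; [ATP] ~Km; IC50 by 4PL fit of % inhibition.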

PKN1 = biological target: T22, PKN1 (Homo sapiens, UniProt Q16512)
T22 construct: purchased Carna Biosciences
Outline: as §1

EphB3 = biological target: T23, EphB3 (Homo sapiens, UniProt P54753)
T23 construct: purchased Carna Biosciences
Outline: as §1

EphA2 = biological target: T24, EphA2 (Homo sapiens, UniProt P29317)
T24 construct: purchased Carna Biosciences
Outline: as §1

PKCd = biological target: T25, PKCd (Homo sapiens, UniProt Q05655)
T25 construct: purchased Carna Biosciences
Outline: as §1

INSR = biological target: T26, INSR (Homo sapiens, UniProt P06213)
T26 construct: purchased Carna Biosciences
Outline: as §1

WEE1 = biological target: T27, WEE1 (Homo sapiens, UniProt P30291)
T27 construct: purchased Carna Biosciences
Outline: as §1

AKT2 = biological target: T28, AKT2 (Homo sapiens, UniProt P31751)
T28 construct: purchased Carna Biosciences
Outline: as §1

CHK2 = biological target: T29, CHK2 (Homo sapiens, UniProt O96017)
T29 construct: purchased Carna Biosciences
Outline: as §1

FLT4 = biological target: T30, FLT4 (Homo sapiens, UniProt P35916)
T30 construct: purchased Carna Biosciences
Outline: as §1

skMLCK = biological target: T31, skMLCK (Homo sapiens, UniProt Q9H1R3)
T31 construct: purchased Carna Biosciences
Outline: as §1

FGR = biological target: T32, FGR (Homo sapiens, UniProt P09769)
T32 construct: purchased Carna Biosciences
Outline: as §2

PKCz = biological target: T33, PKCz (Homo sapiens, UniProt Q05513)
T33 construct: purchased Carna Biosciences
Outline: as §2

PAK6 = biological target: T34, PAK6 (Homo sapiens, UniProt Q9NQU5)
T34 construct: purchased Carna Biosciences
Outline: as §1

FLT1 = biological target: T35, FLT1 (Homo sapiens, UniProt P17948)
T35 construct: purchased Carna Biosciences
Outline: as §1

KIT[V560G] = biological target: T36, KIT[V560G] (Homo sapiens, UniProt P10721, V560G)
T36 construct: purchased Carna Biosciences
Outline: as §2

PKCa = biological target: T37, PKCa (Homo sapiens, UniProt P17252)
T37 construct: purchased Carna Biosciences
Outline: as §1

KDR = biological target: T38, KDR (Homo sapiens, UniProt P35968)
T38 construct: purchased Carna Biosciences
Outline: as §1

MER = biological target: T39, MER (Homo sapiens, UniProt Q12866)
T39 construct: purchased Carna Biosciences
Outline: as §1

COT = biological target: T40, COT (Homo sapiens, UniProt P41279)
T40 construct: purchased Carna Biosciences
Outline: as §1

EphB4 = biological target: T41, EphB4 (Homo sapiens, UniProt P54760)
T41 construct: purchased Carna Biosciences
Outline: as §1

BRAF[V600E] = biological target: T42, BRAF[V600E] (Homo sapiens, UniProt P15056, V600E)
T42 construct: purchased Carna Biosciences
Outline: as §1

CaMK4 = biological target: T43, CaMK4 (Homo sapiens, UniProt Q16566)
T43 construct: purchased Carna Biosciences
Outline: as §1

T9 sequence (Q15208 whole entry): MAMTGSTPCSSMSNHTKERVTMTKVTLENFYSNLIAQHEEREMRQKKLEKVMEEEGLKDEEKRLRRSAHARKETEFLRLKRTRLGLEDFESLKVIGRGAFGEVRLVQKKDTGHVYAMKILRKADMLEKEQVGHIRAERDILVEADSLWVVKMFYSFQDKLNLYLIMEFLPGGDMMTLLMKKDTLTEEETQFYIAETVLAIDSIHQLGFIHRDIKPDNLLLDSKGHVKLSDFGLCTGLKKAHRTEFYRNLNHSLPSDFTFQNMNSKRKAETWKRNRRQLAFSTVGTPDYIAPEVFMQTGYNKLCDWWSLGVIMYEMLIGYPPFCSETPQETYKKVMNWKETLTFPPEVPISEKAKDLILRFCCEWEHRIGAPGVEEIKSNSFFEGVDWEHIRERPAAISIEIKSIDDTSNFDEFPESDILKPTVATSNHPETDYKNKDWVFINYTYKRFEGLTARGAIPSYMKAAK
T32 sequence (P09769 whole entry): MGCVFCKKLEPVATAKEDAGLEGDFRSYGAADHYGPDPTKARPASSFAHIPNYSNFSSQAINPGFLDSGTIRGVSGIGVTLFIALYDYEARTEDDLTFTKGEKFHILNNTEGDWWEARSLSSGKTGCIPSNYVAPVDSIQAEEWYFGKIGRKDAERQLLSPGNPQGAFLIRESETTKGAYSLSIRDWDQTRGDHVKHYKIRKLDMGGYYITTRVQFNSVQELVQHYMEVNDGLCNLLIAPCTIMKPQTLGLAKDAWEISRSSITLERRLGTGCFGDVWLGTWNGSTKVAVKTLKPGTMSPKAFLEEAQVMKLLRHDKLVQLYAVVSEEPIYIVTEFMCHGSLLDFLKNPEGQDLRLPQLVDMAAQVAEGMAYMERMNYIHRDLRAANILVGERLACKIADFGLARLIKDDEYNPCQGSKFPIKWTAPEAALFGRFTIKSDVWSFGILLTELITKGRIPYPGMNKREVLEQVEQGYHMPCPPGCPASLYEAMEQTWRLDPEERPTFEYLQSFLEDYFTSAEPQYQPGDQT
T4 sequence (P08631 whole entry): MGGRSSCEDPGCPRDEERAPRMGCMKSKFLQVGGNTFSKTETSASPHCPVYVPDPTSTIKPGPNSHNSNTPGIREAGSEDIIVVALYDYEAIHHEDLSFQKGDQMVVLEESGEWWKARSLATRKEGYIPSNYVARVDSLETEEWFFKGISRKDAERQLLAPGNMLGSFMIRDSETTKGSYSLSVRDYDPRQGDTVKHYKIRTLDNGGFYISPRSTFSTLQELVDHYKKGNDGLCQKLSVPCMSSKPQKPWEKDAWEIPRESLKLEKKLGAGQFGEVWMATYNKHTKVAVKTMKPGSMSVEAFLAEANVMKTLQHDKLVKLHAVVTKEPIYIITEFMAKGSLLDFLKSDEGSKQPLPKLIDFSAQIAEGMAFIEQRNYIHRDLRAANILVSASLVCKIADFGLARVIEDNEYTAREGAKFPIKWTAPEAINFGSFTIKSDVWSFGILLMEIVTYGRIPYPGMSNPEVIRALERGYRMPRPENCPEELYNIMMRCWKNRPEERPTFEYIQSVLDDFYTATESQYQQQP
T11 sequence (P10721 26-976 T670I): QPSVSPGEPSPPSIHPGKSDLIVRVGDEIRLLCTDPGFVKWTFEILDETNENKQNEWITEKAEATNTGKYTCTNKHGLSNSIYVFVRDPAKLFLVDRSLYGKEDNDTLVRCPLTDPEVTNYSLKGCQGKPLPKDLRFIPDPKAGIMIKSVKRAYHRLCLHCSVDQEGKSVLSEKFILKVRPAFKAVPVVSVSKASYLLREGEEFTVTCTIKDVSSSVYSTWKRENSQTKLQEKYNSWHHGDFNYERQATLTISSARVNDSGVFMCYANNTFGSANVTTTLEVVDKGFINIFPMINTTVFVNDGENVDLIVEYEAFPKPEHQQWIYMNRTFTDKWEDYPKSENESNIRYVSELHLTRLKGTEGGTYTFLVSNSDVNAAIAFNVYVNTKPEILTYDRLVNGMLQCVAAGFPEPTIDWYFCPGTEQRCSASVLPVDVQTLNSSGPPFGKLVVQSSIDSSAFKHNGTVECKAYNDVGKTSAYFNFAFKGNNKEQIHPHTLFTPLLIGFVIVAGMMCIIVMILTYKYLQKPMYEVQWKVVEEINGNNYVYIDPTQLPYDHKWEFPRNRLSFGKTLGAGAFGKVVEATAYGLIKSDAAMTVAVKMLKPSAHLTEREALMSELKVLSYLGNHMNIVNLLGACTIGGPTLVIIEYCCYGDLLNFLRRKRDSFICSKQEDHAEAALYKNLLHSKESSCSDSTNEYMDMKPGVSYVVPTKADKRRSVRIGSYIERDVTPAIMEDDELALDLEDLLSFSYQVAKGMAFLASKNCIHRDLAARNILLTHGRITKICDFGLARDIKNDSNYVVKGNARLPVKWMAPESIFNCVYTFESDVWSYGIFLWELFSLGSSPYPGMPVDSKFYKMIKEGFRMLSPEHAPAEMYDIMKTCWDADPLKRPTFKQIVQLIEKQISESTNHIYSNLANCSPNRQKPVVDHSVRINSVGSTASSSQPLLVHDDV
T26 sequence (P06213 28-1382): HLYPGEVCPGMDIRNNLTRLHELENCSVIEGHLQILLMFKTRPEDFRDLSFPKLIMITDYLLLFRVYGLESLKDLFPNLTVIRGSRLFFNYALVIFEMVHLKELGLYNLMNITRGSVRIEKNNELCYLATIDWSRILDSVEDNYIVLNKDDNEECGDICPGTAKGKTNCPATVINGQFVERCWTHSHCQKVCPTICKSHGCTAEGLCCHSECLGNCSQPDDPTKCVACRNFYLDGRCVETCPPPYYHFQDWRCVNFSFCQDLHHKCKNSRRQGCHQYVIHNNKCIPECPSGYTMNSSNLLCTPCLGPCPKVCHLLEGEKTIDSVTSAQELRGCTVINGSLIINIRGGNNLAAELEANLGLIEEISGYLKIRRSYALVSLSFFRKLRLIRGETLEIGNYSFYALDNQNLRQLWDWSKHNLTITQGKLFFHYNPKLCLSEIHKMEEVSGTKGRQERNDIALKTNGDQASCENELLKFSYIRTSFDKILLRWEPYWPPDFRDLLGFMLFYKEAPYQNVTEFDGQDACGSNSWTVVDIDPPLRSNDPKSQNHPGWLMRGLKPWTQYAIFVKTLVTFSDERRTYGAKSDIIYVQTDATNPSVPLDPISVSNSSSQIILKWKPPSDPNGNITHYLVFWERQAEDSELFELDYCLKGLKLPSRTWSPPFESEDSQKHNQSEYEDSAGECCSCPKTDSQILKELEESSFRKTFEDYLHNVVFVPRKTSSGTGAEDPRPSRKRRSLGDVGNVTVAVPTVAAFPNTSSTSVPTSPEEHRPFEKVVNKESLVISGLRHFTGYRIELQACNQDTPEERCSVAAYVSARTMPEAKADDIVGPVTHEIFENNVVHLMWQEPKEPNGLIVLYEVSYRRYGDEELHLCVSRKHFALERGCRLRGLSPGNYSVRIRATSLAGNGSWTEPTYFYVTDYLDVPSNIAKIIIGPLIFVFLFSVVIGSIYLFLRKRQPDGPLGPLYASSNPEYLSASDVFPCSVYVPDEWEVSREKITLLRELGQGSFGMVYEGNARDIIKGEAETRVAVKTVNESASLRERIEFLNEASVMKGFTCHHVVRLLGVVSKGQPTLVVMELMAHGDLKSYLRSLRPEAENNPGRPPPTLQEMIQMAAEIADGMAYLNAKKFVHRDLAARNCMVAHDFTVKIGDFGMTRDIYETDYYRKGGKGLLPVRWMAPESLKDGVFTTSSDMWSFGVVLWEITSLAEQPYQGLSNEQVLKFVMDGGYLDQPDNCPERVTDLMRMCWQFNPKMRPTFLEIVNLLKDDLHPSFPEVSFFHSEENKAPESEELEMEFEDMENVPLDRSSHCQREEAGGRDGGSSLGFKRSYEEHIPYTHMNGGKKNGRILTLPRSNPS
T18 sequence (Q13188 whole entry): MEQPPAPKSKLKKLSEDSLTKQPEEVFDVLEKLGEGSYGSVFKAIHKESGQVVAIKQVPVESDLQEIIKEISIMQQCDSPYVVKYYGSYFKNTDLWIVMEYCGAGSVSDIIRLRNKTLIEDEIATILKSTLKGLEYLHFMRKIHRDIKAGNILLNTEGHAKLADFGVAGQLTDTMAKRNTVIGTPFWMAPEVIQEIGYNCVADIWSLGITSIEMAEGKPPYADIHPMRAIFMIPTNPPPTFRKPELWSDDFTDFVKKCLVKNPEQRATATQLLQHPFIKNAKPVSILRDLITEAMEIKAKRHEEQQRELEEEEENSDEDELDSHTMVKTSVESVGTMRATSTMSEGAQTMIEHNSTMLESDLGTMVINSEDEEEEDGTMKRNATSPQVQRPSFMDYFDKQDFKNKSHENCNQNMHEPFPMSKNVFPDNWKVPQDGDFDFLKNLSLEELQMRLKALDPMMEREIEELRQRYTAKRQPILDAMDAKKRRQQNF
T25 sequence (Q05655 whole entry): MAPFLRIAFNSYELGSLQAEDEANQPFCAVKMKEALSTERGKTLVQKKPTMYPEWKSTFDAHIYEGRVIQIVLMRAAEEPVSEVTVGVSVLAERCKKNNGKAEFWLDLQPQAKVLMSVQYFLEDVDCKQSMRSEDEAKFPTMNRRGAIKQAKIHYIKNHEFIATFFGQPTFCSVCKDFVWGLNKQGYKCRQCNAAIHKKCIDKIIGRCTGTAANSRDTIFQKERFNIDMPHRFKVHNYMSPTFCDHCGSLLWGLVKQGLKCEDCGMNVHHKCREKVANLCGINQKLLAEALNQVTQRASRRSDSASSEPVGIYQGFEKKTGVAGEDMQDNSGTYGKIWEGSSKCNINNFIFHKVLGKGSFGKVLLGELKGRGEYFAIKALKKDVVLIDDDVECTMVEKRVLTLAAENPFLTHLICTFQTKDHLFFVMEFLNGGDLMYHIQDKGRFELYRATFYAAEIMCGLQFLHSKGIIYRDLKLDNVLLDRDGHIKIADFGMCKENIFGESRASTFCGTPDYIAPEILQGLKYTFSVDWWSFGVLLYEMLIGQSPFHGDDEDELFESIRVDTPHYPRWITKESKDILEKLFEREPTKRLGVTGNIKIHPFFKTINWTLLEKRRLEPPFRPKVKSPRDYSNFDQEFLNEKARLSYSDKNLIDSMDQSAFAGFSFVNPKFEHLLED
T36 sequence (P10721 26-976 V560G): as the sequence (P10721 26-976 T670I) above, with V535G, I645T counted along it

## CC[C@H](Nc1nc(NCc2cnc(C)cc2C)c2ncn(C(C)C)c2n1)[C@@H](C)O [Fadraciclib, 2-pentanol, 3-[[6-[[(4,6-dimethyl-3-pyridinyl)methyl]amino]-9-(1-methylethyl)-9Hpurin-2-yl]amino]-, (2R,3S)]
MAP2K4
  inhibition at 1 µM: -2.7 ± 0.1%
p70S6K
  inhibition at 1 µM: 5.6 ± 0.2%
HIPK2
  inhibition at 1 µM: 2.5 ± 0.1%
HCK
  inhibition at 1 µM: -4.9 ± 0.1%
CDK3
  inhibition at 1 µM: 95.9%
SRPK2
  inhibition at 1 µM: -3.8 ± 0.1%
LTK
  inhibition at 1 µM: 6.6 ± 0.1%
MSK1
  inhibition at 1 µM: 5.5 ± 0.4%
NDR1
  inhibition at 1 µM: 2 ± 0.1%
CLK1
  inhibition at 1 µM: 70.2 ± 6.8%
KIT[T670I]
  inhibition at 1 µM: -9.2 ± 0.2%
MRCKa
  inhibition at 1 µM: -14.8 ± 0.1%
DAPK1
  inhibition at 1 µM: -8.8 ± 0.1%
BRAF
  inhibition at 1 µM: -8.4 ± 1%
MAP2K3
  inhibition at 1 µM: -12.3 ± 0.3%
ZAP70
  inhibition at 1 µM: -11.6 ± 0.3%
MAP3K2
  inhibition at 1 µM: -14.7 ± 0.8%
MST2
  inhibition at 1 µM: -1.5%
AurB
  inhibition at 1 µM: 4.2 ± 0.2%
NEK7
  inhibition at 1 µM: 0.9%
CDK6
  inhibition at 1 µM: 27 ± 0.9%
PKN1
  inhibition at 1 µM: -17.7 ± 0.1%
EphB3
  inhibition at 1 µM: 0%
EphA2
  inhibition at 1 µM: 3.8%
PKCd
  inhibition at 1 µM: 28.7 ± 2.7%
INSR
  inhibition at 1 µM: -12.2 ± 0.8%
WEE1
  inhibition at 1 µM: 35.1 ± 0.1%
AKT2
  inhibition at 1 µM: 1.5 ± 0.1%
CHK2
  inhibition at 1 µM: -7.6 ± 0.1%
FLT4
  inhibition at 1 µM: 6.3 ± 0.2%
skMLCK
  inhibition at 1 µM: -9.8 ± 1.1%
FGR
  inhibition at 1 µM: 3.3 ± 0.1%
PKCz
  inhibition at 1 µM: -0.2%
PAK6
  inhibition at 1 µM: -5.4%
FLT1
  inhibition at 1 µM: 1.9%
KIT[V560G]
  inhibition at 1 µM: 2.5 ± 0.1%
PKCa
  inhibition at 1 µM: 17.8 ± 0.5%
KDR
  inhibition at 1 µM: -12.8 ± 0.1%
MER
  inhibition at 1 µM: -9.1 ± 0.1%
COT
  inhibition at 1 µM: -15.6 ± 0.4%
EphB4
  inhibition at 1 µM: 3.6 ± 0.1%
BRAF[V600E]
  inhibition at 1 µM: -1.9 ± 0.1%
CaMK4
  inhibition at 1 µM: -4.8 ± 0.1%
